Data: patent publication US10925848B2, “Amide derivative” (Daiichi Sankyo Company, Limited, priority 2017, dated 2021)

Target: tryptophanase of Bacteroides tetaiotaomicron (Bacteroides thetaiotaomicron, UniProt Q8A7N2)
Assay: Tryptophanase enzyme inhibitory activity (LDH-coupled NADH loss)
Type: biochemical
Settings: 10 mM L-tryptophan, 30 min preincubation at 37° C., absorbance at 340 nm
Procedure: Tryptophanase inhibitory activity was evaluated by a method using lactate dehydrogenase (LDH). The reaction time-dependent reduction in NADH conjugated with the enzymatic reaction, with LDH, of pyruvic acid produced through the enzymatic reaction of L-tryptophan as a substrate with tryptophanase, was measured with a spectrophotometer (Phillips-R S et al., Biochemistry, 23, 6228-6234 (1984)). Enzyme inhibitory activity obtained without adding a test compound (by adding DMSO alone) in the presence of tryptophanase was used as a control. As the enzyme, tryptophanase of Bacteroides tetaiotaomicron (Genbank accession number: HC914434.1) was used.
A test compound solution was prepared by dissolving each test compound in DMSO at concentrations (from 30 mM to 30 nM at 10-fold common ratio). LDH, NADH and L-tryptophan were dissolved, using distilled water, respectively to concentrations of 80 units/mL, 10 mM and 50 mM. Bacteroides tryptophanase was prepared to 30 mg/mL. A potassium phosphate buffer was used as the buffer.
A reaction solution A was dispensed at 284.8 μL per well into a 96-well plate, and the test compound solution was added at 3.2 μL per well to obtain a final concentration of 1/100 (reaction solution B). The reaction solution B was incubated at 37° C. for 30 minutes, L-tryptophan was added thereto at 32 μL per well to obtain a final concentration of […] (reaction solution C), and the enzyme reaction was performed at 37° C. over 30 minutes with absorbance at 340 nm measured for monitoring the NADH loss. Based on the NADH loss, the tryptophanase inhibitory activity of the compound was evaluated.

tryptophanase of Bacteroides tetaiotaomicron, sequence (Q8A7N2 entry or part of it, change not shown): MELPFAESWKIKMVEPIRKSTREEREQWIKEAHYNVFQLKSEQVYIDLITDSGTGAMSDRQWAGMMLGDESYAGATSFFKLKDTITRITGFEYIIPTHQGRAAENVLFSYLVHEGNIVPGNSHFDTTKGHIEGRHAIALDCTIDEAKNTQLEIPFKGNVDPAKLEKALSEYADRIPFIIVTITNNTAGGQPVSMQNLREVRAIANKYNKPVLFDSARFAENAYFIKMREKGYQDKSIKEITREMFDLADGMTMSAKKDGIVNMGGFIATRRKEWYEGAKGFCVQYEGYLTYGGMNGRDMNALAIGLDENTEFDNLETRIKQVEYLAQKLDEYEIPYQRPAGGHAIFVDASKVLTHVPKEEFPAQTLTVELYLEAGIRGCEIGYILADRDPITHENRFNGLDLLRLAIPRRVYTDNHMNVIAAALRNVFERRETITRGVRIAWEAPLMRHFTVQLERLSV

Which IC50 does the source give for `CCC(CC)(NC(=O)c1ccc(N)cc1)C(=O)O` [Compound of Example 1, 2-[(4-Aminobenzoyl)amino]-2-ethylbutanoic Acid] here?
The IC50 was 27100 nM.

Which IC50 does the source give for `CCC(CC)(NC(=O)c1ccc(N)c(C)c1)C(=O)O` [Compound of Example 2, 2-[(4-Amino-3-methylbenzoyl)amino]-2-ethylbutanoic Acid] here?
The IC50 was 7800 nM.

`CCC(CC)(NC(=O)c1cc(C)c(N)c(C)c1)C(=O)O` [Compound of Example 3, 2-[(4-Amino-3,5-dimethylbenzoyl)amino]-2-ethylbutanoic Acid] was tested. Which IC50 did it give?
Its IC50 is 8000 nM.

Which IC50 does the source give for `CCC(NC(=O)c1ccc(N)c(C)c1)(C(=O)O)C1CC1` (centres unmarked) [Compound of Example 4, 2-[(4-Amino-3-methylbenzoyl)amino]-2-cyclopropyl butanoic Acid] here?
Its IC50 is 1700 nM.

Which IC50 does the source give for `CCC(NC(=O)c1ccc(N)c(Cl)c1)(C(=O)O)C1CC1` (centres unmarked) [Compound of Example 5, 2-[(4-Amino-3-chlorobenzoyl)amino]-2-cyclopropyl butanoic Acid] here?
The IC50 was 1000 nM.

Which IC50 does the source give for `CCC(CC)(NC(=O)c1cc(F)c(N)c(Cl)c1)C(=O)O` [Compound of Example 7, 2-[(4-Amino-3-chloro-5-fluorobenzoyl)amino]-2-ethylbutanoic Acid] here?
The IC50 was 6900 nM.

Which IC50 does the source give for `CCOc1cc(N)c(Cl)cc1C(=O)NC(C)(C)C(=O)O` [Compound of Example 8, N-(4-Amino-5-chloro-2-ethoxybenzoyl)-2-methylalanine] here?
Its IC50 is 1300 nM.

For `CC(C)Oc1cc(N)c(Cl)cc1C(=O)NC(C)(C)C(=O)O` [Compound of Example 9, N-[4-Amino-5-chloro-2-(propan-2-yloxy)benzoyl)-2-methylalanine], which IC50 is on record?
The IC50 was 390 nM.

`CC[C@](C)(NC(=O)c1cc(Cl)c(N)cc1OC)C(=O)O` [Compound of Example 12, (+)-N-(4-Amino-5-chloro-2-methoxybenzoyl)-L-isovaline] was tested. Which IC50 did it give?
The IC50 was 310 nM.

Which IC50 does the source give for `CCOc1cc(N)c(Cl)cc1C(=O)N[C@@](C)(CC)C(=O)O` [Compound of Example 13, (+)-N-(4-Amino-5-chloro-2-ethoxybenzoyl)-L-isovaline] here?
The IC50 was 80 nM.

`CCCOc1cc(N)c(Cl)cc1C(=O)NC(C)(C)C(=O)O` [Compound of Example 14, N-(4-Amino-5-chloro-2-propoxybenzoyl)-2-methylalanine] was tested. Which IC50 did it give?
Its IC50 is 200 nM.

With `CC[C@](C)(NC(=O)c1cc(Br)c(N)cc1OC)C(=O)O` [Compound of Example 17, (+)-N-(4-Amino-5-bromo-2-methoxybenzoyl)-L-isovaline] as the molecule, how does the IC50 read?
Its IC50 is 140 nM.

`CC[C@](C)(NC(=O)c1cc(I)c(N)cc1OC)C(=O)O` [Compound of Example 18, (+)-N-(4-Amino-5-iodo-2-methoxybenzoyl)-L-isovaline] was tested. Which IC50 did it give?
Its IC50 is 100 nM.

With `CCOc1cc(N)c(Br)cc1C(=O)N[C@@](C)(CC)C(=O)O` [Compound of Example 19, (+)-N-(4-Amino-5-bromo-2-ethoxybenzoyl)-L-isovaline] as the molecule, how does the IC50 read?
The IC50 was 60 nM.

For `CCOc1cc(N)c(I)cc1C(=O)N[C@@](C)(CC)C(=O)O` [Compound of Example 20, (+)-N-(4-Amino-2-ethoxy-5-iodobenzoyl)-L-isovaline], which IC50 is on record?
The IC50 was 50 nM.

With `CCOc1cc(N)c(I)cc1C(=O)N[C@](C)(CC)C(=O)O` [Compound of Example 22, (−)-N-(4-Amino-2-ethoxy-5-iodobenzoyl)-D-isovaline] as the molecule, how does the IC50 read?
The IC50 was 80 nM.

With `CC[C@@](C)(NC(=O)c1cc(C(F)(F)F)c(N)cc1OC)C(=O)O` [Compound of Example 26, (−)-N-(4-Amino-2-methoxy-5-(trifluoromethyl)benzoyl)-D-isovaline] as the molecule, how does the IC50 read?
Its IC50 is 840 nM.

`CC[C@@](C)(NC(=O)c1cc(C)c(N)cc1OC)C(=O)O` [Compound of Example 28, N-(4-Amino-2-methoxy-5-methylbenzoyl)-D-isovaline] was tested. Which IC50 did it give?
Its IC50 is 3130 nM.

How did the IC50 turn out when `CCOc1cc(N)c(C#N)cc1C(=O)N[C@](C)(CC)C(=O)O` [Compound of Example 29, (−)-N-(4-Amino-5-cyano-2-ethoxybenzoyl)-D-isovaline] was run?
Its IC50 is 20 nM.

`CC[C@@](C)(NC(=O)c1cc(F)c(N)cc1OC)C(=O)O` [Compound of Example 30, (−)-N-(4-Amino-5-fluoro-2-methoxybenzoyl)-D-isovaline] was tested. Which IC50 did it give?
Its IC50 is 5610 nM.
